# Read-outs that look alike come from different tables or passages of the source.
# How the values were obtained:
# Type in all cases: cell-based
# Details in all cases: 48 hours
# [1] = tested on: IL-17FF; experiment: IL-17FF production by PHA-stimulated human PBMC (human IL-17F ELI-Pair)
# In short: (§1)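 PBMC from healthy donors, 1×10^5/well, 2 μg/ml PHA + compound, 48 h. Supernatant cytokine by Luminex bead assay or ELISA as listed. Screen at 10/1/0.1/0.01 μM; IC50 via semilog titration.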
# [2] = tested on: IFN-γ; experiment: IFN-γ production by PHA-stimulated human PBMC (OptEIA human IFN-g ELISA)
# In short: as §1
# [3] = tested on: PBMC from healthy human donors; experiment: T cell proliferation assay (PHA-stimulated human PBMC, BrdU ELISA)
# In short: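 Proliferation was quantified by BrdU ELISA 48 hours after starting culture of 1×10⁵ human PBMC per well with test compound and 2 μg/ml phytohaemagglutinin. Cells came from healthy donors via Ficoll separation and were kept in RPMI1640 with 10% dialysed heat-inactivated FCS.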
# [4] = PHA-stimulated human PBMC, column B, read-out: IC50 (IL-17FF)
# [5] = PHA-stimulated human PBMC, column C, read-out: IC50 (IFNγ)
# [6] = PHA-stimulated human PBMC, column D, read-out: IC50 (Tcell proliferation)
# [7] = human PBMC, 2 μg/ml PHA, read-out: B: IC50 (IL-17FF)
# [8] = human PBMC, 2 μg/ml PHA, read-out: C: IC50 (IFNγ)
# [9] = human PBMC, 2 μg/ml PHA, read-out: D: IC50 (Tcell proliferation)
SMILES,"IC50 [1, 4]","IC50 [2, 5]","IC50 [1, 7]","IC50 [2, 8]","IC50 [3, 6]","IC50 [3, 9]"
"CNC(=O)c1c(-c2c(F)cccc2Cl)noc1-c1cnn(-c2ccc(F)cc2)c1C(F)(F)F [Example I-55, 3-(2-chloro-6-fluorophenyl)-5-(1-(4-fluorophenyl)-5-(trifluoromethyl)-1H-pyrazol-4-yl)-N-methylisoxazole-4-carboxamide]",100 to 1000 nM,100 to 1000 nM,,,100 to 1000 nM,
"CCOC(=O)c1c(-c2onc(-c3c(F)cccc3Cl)c2C(=O)OC)cnn1-c1ccc(F)cc1F [Example I-35, methyl 3-(2-chloro-6-fluorophenyl)-5-(1-(2,4-difluorophenyl)-5-(ethoxycarbonyl)-1H-pyrazol-4-yl)isoxazole-4-carboxylate]",100 to 1000 nM,100 to 1000 nM,,,100 to 1000 nM,
"CCOC(=O)c1csc(-c2c(-c3c(F)cccc3Cl)noc2-c2cnn(-c3cccc(F)c3)c2C(F)(F)F)n1 [Example B-1, ethyl 2-(3-(2-chloro-6-fluorophenyl)-5-(1-(3-fluorophenyl)-5-(trifluoromethyl)-1H-pyrazol-4-yl)isoxazol-4-yl)thiazole-4-carboxylate]",,,100 to 1000 nM,100 to 1000 nM,,100 to 1000 nM
"COC(=O)c1c(-c2c(F)cccc2Cl)noc1-c1cnn(C2CCS(=O)(=O)C2)c1C(F)(F)F (stereo not drawn) [Example I-103, methyl 3-(2-chloro-6-fluorophenyl)-5-(1-(3-hydrazinyltetrahy-drothiophene 1,1-dioxide)-5-(trifluoromethyl)-1H-pyrazol-4-yl)isoxazole-4-carboxylate]",100 to 1000 nM,100 to 1000 nM,,,100 to 1000 nM,
"Fc1cccc(Cl)c1-c1noc(-c2cnn(-c3ccccn3)c2C(F)(F)F)c1-c1nnco1 [Example B-25, 2-(3-(2-chloro-6-fluorophenyl)-5-(1-(pyridin-2-yl)-5-(trifluoromethyl)-1H-pyrazol-4-yl)isoxazol-4-yl)-1,3,4-oxadiazole]",,,100 to 1000 nM,10 to 100 nM,,10 to 100 nM
"Fc1ccccc1-n1ncc(-c2onc(-c3c(F)cccc3Cl)c2-c2nccs2)c1C(F)(F)F [Example B-30, 3-(2-chloro-6-fluorophenyl)-5-(1-(2-fluorophenyl)-5-(trifluoromethyl)-1H-pyrazol-4-yl)-4-(thiazol-2-yl)isoxazole]",,,10 to 100 nM,10 to 100 nM,,10 to 100 nM
"O=C(c1c(-c2c(F)cccc2Cl)noc1-c1cnn(-c2ccccc2F)c1C(F)(F)F)N1CCOCC1 [Example I-16, (3-(2-chloro-6-fluorophenyl)-5-(1-(2-fluorophenyl)-5-(trifluoromethyl)-1H-pyrazol-4-yl)isoxazol-4-yl)(morpholino)methanone]",100 to 1000 nM,100 to 1000 nM,,,1000 to 10000 nM,
"Fc1cccc(Cl)c1-c1noc(-c2cnn(-c3cccc(Cl)c3)c2C(F)(F)F)c1-c1nncs1 [Example B-8, 3-(2-chloro-6-fluorophenyl)-5-(1-(3-chlorophenyl)-5-(trifluoromethyl)-1H-pyrazol-4-yl)-4-(1,3,4-thiadiazol-2-yl)isoxazole]",,,< 10 nM,< 10 nM,,< 10 nM
"NS(=O)(=O)c1cccc(-n2ncc(-c3onc(-c4c(F)cccc4Cl)c3-c3nnco3)c2C(F)(F)F)c1 [Example B-17, 3-(4-(3-(2-chloro-6-fluorophenyl)-4-(1,3,4-oxadiazol-2-yl)isoxazol-5-yl)-5-(trifluoromethyl)-1H-pyrazol-1-yl)benzenesulfonamide]",,,1000 to 10000 nM,1000 to 10000 nM,,1000 to 10000 nM
"COC(=O)c1c(-c2cccc(F)c2)noc1-c1cnn(-c2cccc(F)c2)c1C(F)(F)F [Example I-106, methyl 3-(3-fluorophenyl)-5-(1-(3-fluorophenyl)-5-(trifluoromethyl)-1H-pyrazol-4-yl)isoxazole-4-carboxylate]",1000 to 10000 nM,1000 to 10000 nM,,,1000 to 10000 nM,
"CON(C)C(=O)c1c(-c2c(F)cccc2Cl)noc1-c1cnn(-c2cccc(F)c2)c1C(F)(F)F [Example I-135, 3-(2-chloro-6-fluorophenyl)-5-(1-(3-fluorophenyl)-5-(trifluoromethyl)-1H-pyrazol-4-yl)-N-methoxy-N-methylisoxazole-4-carboxamide]",100 to 1000 nM,100 to 1000 nM,,,100 to 1000 nM,
"CSC(=O)c1c(-c2c(F)cccc2Cl)noc1-c1cnn(-c2ccccc2F)c1C(F)(F)F [Example I-130, S-methyl 3-(2-chloro-6-fluorophenyl)-5-(1-(2-fluorophenyl)-5-(trifluoromethyl)-1H-pyrazol-4-yl)isoxazole-4-carbothioate]",< 10 nM,< 10 nM,,,< 10 nM,

# Second part, led by results:
"IC50 [1, 4]","IC50 [2, 5]","IC50 [1, 7]","IC50 [2, 8]",SMILES,"IC50 [3, 6]","IC50 [3, 9]"
< 10 nM,< 10 nM,,,"CCOC(=O)c1c(-c2c(F)cccc2Cl)noc1-c1cnn(-c2ccccn2)c1C(F)(F)F [IB-84, ethyl 3-(2-chloro-6-fluorophenyl)-5-(1-(pyridin-2-yl)-5-(trifluoromethyl)-1H-pyrazol-4-yl)isoxazole-4-carboxylate]",< 10 nM,
100 to 1000 nM,100 to 1000 nM,,,"COC(=O)c1c(-c2ccccc2)noc1-c1cnn(-c2cccc(Cl)c2)c1C(F)(F)F [IB-30, methyl 5-(1-(3-chlorophenyl)-5-(trifluoromethyl)-1H-pyrazol-4-yl)-3-phenylisoxazole-4-carboxylate]",100 to 1000 nM,
1000 to 10000 nM,1000 to 10000 nM,,,"CCOC(=O)c1c(-c2c(F)cccc2Cl)noc1-c1cnn(-c2ccc(NC(C)=O)cc2)c1C(F)(F)F [IB-99, ethyl 5-(1-(4-acetamidophenyl)-5-(trifluoromethyl)-1H-pyrazol-4-yl)-3-(2-chloro-6-fluorophenyl)isoxazole-4-carboxylate]",1000 to 10000 nM,
100 to 1000 nM,10 to 100 nM,,,"CCOC(=O)c1c(-c2ccncc2F)noc1-c1cnn(-c2ccncc2)c1C(F)(F)F [IB-3, ethyl 3-(3-fluoropyridin-4-yl)-5-(1-(pyridin-4-yl)-5-(trifluoromethyl)-1H-pyrazol-4-yl)isoxazole-4-carboxylate]",100 to 1000 nM,
100 to 1000 nM,100 to 1000 nM,,,"CC(C)NS(=O)(=O)c1cccc(-n2ncc(-c3onc(-c4c(F)cccc4Cl)c3C(=O)OC(C)C)c2C(F)(F)F)c1 [IB-79, isopropyl 3-(2-chloro-6-fluorophenyl)-5-(1-(3-(N-isopropylsulfamoyl)phenyl)-5-(trifluoromethyl)-1H-pyrazol-4-yl)isoxazole-4-carboxylate]",100 to 1000 nM,
100 to 1000 nM,1000 to 10000 nM,,,"O=C(c1c(-c2c(F)cccc2Cl)noc1-c1cnn(-c2ccccc2Cl)c1C(F)(F)F)N1CCCO1 [IB-49, (3-(2-chloro-6-fluorophenyl)-5-(1-(2-chlorophenyl)-5-(trifluoromethyl)-1H-pyrazol-4-yl)isoxazol-4-yl)(isoxazolidin-2-yl)methanone]",1000 to 10000 nM,
1000 to 10000 nM,1000 to 10000 nM,,,"CON(C)C(=O)c1c(-c2c(F)cccc2Cl)noc1-c1cnn(-c2ccncc2)c1C(F)(F)F [IB-59, 3-(2-chloro-6-fluorophenyl)-N-methoxy-N-methyl-5-(1-(pyridin-4-yl)-5-(trifluoromethyl)-1H-pyrazol-4-yl)isoxazole-4-carboxamide]",1000 to 10000 nM,
1000 to 10000 nM,1000 to 10000 nM,,,"NC(=S)c1c(-c2c(F)cccc2Cl)noc1-c1cnn(-c2ccccc2Cl)c1C(F)(F)F [IB-101, 3-(2-chloro-6-fluorophenyl)-5-(1-(2-chlorophenyl)-5-(trifluoromethyl)-1H-pyrazol-4-yl)isoxazole-4-carbothioamide]",1000 to 10000 nM,

# — patent US8354436B2 (4SC Discovery GmbH, priority 2011, dated 2013)
